# Measurements as given in patent publication US20240101531A1, “PYRIDINAMINE DERIVATIVES AND THEIR USE AS POTASSIUM CHANNEL MODULATORS” (Xenon Pharmaceuticals Inc., priority 2022, published 2024).
# Structures can show the parent of a compound that is named as a salt.
# Biological target: human KV7.2/KV7.3 (Homo sapiens (Human), UniProt O43525+O43526)
# Test: Potassium flux assay (IPG-2 AM dye)
# Assay type: cell-based
# Conditions: TREX HEK 293 or HEK 293 cells expressing human KV7.2/KV7.3; arithmetic mean values
# Outline: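 HEK 293 or TREX HEK 293 cells stably expressing human KV7.2/KV7.3 (tetracycline-induced where needed), loaded with IPG-2 AM, then compound for 20 min at room temperature. Flux triggered by K challenge buffer (10 mM KCl, pH 7.4), read at 530/558 nm; EC50 from 16-point 2-fold series from 30 μM, normalised to DMSO and reference modulator.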
row,EC50 [µM],Compound
1,10 to 30,"Clc1ccc(Nc2nccc3cc(OCc4cnn5c4OCCC5)ccc23)cn1 [Example 84, N-(6-chloropyridin-3-yl)-6-((6,7-dihydro-5H-pyrazolo[5,1-b][1,3]oxazin-3-yl)methoxy)isoquinolin-1-amine]"
2,< 1,"N#CC1(COc2ccc3c(Nc4ccc(Cl)nc4)nccc3c2)COC1 [Example 85, 3-(((1-((6-chloropyridin-3-yl)amino)isoquinolin-6-yl)oxy)methyl)oxetane-3-carbonitrile]"
3,1 to 10,"FC1(F)COCC1Oc1ccc2c(Nc3ccc(Cl)nc3)nccc2c1 (stereo not shown) [Example 86, N-(6-chloropyridin-3-yl)-6-((4,4-difluorotetrahydrofuran-3-yl)oxy)isoquinolin-1-amine 2,2,2-trifluoroacetate]"
4,1 to 10,"Cn1cnnc1COc1ccc2c(Nc3ccc(Cl)nc3)nccc2c1 [Example 87, N-(6-chloropyridin-3-yl)-6-((4-methyl-4H-1,2,4-triazol-3-yl)methoxy)isoquinolin-1-amine]"
5,1 to 10,"Cc1ncc(Nc2nccc3cc(OCC4(C#N)CC4)ccc23)cn1 [Example 88, 1-(((1-((2-methylpyrimidin-5-yl)amino)isoquinolin-6-yl)oxy)methyl)cyclopropane-1-carbonitrile]"
6,< 1,"Clc1ccc(Nc2nccc3cc(OCCC4COC4)ccc23)cn1 [Example 89, N-(6-chloropyridin-3-yl)-6-(2-(oxetan-3-yl)ethoxy)isoquinolin-1-amine]"
7,1 to 10,"Clc1ccc(Nc2nccc3cc(OC4CCN(Cc5ccccc5)CC4)ccc23)cn1 [Example 90, 6-((1-benzylpiperidin-4-yl)oxy)-N-(6-chloropyridin-3-yl)isoquinolin-1-amine trifluoroacetate]"
8,< 1,"CC(Oc1ccc2c(Nc3ccc(Cl)nc3)nccc2c1)C1(F)CC1 (stereo not shown) [Example 91, N-(6-chloropyridin-3-yl)-6-(1-(1-fluorocyclopropyl)ethoxy)isoquinolin-1-amine]"
9,< 1,"FC1(F)CCC(Oc2ccc3c(Nc4ccc(Cl)nc4)nccc3c2)CC1 [Example 93, N-(6-chloropyridin-3-yl)-6-((4,4-difluorocyclohexyl)oxy)isoquinolin-1-amine]"
10,10 to 30,"Clc1ccc(Nc2nccc3cc(OCc4cnccn4)ccc23)cn1 [Example 94, N-(6-chloropyridin-3-yl)-6-(pyrazin-2-ylmethoxy)isoquinolin-1-amine]"
11,1 to 10,"O[C@H]1C[C@H](Oc2ccc3c(Nc4ccc(Cl)nc4)nccc3c2)C1 [Example 96, (1r,3r)-3-((1-((6-chloropyridin-3-yl)amino)isoquinolin-6-yl)oxy)cyclobutan-1-ol]"
12,1 to 10,"CC1(CCOc2ccc3c(Nc4ccc(Cl)nc4)nccc3c2)COC1 [Example 98, N-(6-chloropyridin-3-yl)-6-(2-(3-methyloxetan-3-yl)ethoxy)isoquinolin-1-amine]"
13,1 to 10,"Cn1cc(CCOc2ccc3c(Nc4ccc(Cl)nc4)nccc3c2)cn1 [Example 99, N-(6-chloropyridin-3-yl)-6-(2-(1-methyl-1H-pyrazol-4-yl)ethoxy)isoquinolin-1-amine]"

# The next lines start with the molecule.
row,Compound,EC50 [µM]
1,"COc1ccc(Nc2nccc3cc(OCC4(C)COC4)ccc23)cn1 [Example 67, N-(6-methoxypyridin-3-yl)-6-((3-methyloxetan-3-yl)methoxy)isoquinolin-1-amine]",≥ 30
2,"FC1(COc2ccc3c(Nc4cnc(Cl)nc4)nccc3c2)CC1 [Example 68, N-(2-chloropyrimidin-5-yl)-6-((1-fluorocyclopropyl)methoxy)isoquinolin-1-amine]",< 1
3,"Oc1ccc2c(Nc3ccc(Cl)nc3)nccc2c1 [Example 69, 1-((6-chloropyridin-3-yl)amino)isoquinolin-6-ol]",10 to 30
4,"Clc1ccc(Nc2nccc3cc(OCCN4CC5(CCO5)C4)ccc23)cn1 [Example 70, 6-(2-(1-oxa-6-azaspiro[3.3]heptan-6-yl)ethoxy)-N-(6-chloropyridin-3-yl)isoquinolin-1-amine]",10 to 30
5,"Clc1ccc(Nc2nccc3cc(OCCN4CC5(CCC5)C4)ccc23)cn1 [Example 71, 6-(2-(2-azaspiro[3.3]heptan-2-yl)ethoxy)-N-(6-chloropyridin-3-yl)isoquinolin-1-amine]",10 to 30
6,"COC1CN(CCOc2ccc3c(Nc4ccc(Cl)nc4)nccc3c2)C1 [Example 72, N-(6-chloropyridin-3-yl)-6-(2-(3-methoxyazetidin-1-yl)ethoxy)isoquinolin-1-amine]",10 to 30
7,"Clc1ccc(Nc2nccc3cc(OCCN4CC5(COC5)C4)ccc23)cn1 [Example 73, 6-(2-(2-oxa-6-azaspiro[3.3]heptan-6-yl)ethoxy)-N-(6-chloropyridin-3-yl)isoquinolin-1-amine]",≥ 30
8,"Clc1ccc(Nc2nccc3cc(OCCn4ccnc4)ccc23)cn1 [Example 74, 6-(2-(1H-imidazol-1-yl)ethoxy)-N-(6-chloropyridin-3-yl)isoquinolin-1-amine]",≥ 30
9,"O=c1cc[nH]n1CCOc1ccc2c(Nc3ccc(Cl)nc3)nccc2c1 [Example 75, 2-(2-((1-((6-chloropyridin-3-yl)amino)isoquinolin-6-yl)oxy)ethyl)-1,2-dihydro-3H-pyrazol-3-one]",1 to 10
10,"Clc1ccc(Nc2nccc3cc(OCc4ccccc4)ccc23)cn1 [Example 76, 6-(benzyloxy)-N-(6-chloropyridin-3-yl)isoquinolin-1-amine]",≥ 30
11,"N#CC1(COc2ccc3c(Nc4ccc(Cl)nc4)nccc3c2)CCC1 [Example 77, 1-(((1-((6-chloropyridin-3-yl)amino)isoquinolin-6-yl)oxy)methyl)cyclobutane-1-carbonitrile]",< 1
12,"CC(C)(C#N)COc1ccc2c(Nc3ccc(Cl)nc3)nccc2c1 [Example 78, 3-((1-((6-chloropyridin-3-yl)amino)isoquinolin-6-yl)oxy)-2,2-dimethylpropanenitrile]",1 to 10
13,"N#CC1(COc2ccc3c(Nc4ccc(Cl)nc4)nccc3c2)CC1 [Example 80, 1-(((1-((6-chloropyridin-3-yl)amino)isoquinolin-6-yl)oxy)methyl)cyclopropane-1-carbonitrile]",< 1
14,"Clc1ccc(Nc2nccc3cc(OCC4CC5(COC5)C4)ccc23)cn1 [Example 81, 6-((2-oxaspiro[3.3]heptan-6-yl)methoxy)-N-(6-chloropyridin-3-yl)isoquinolin-1-amine]",1 to 10
15,"Clc1ccc(Nc2nccc3cc(OCn4cccn4)ccc23)cn1 [Example 82, 6-((1H-pyrazol-1-yl)methoxy)-N-(6-chloropyridin-3-yl)isoquinolin-1-amine]",1 to 10
16,"FC1(F)CCCC(Oc2ccc3c(Nc4ccc(Cl)nc4)nccc3c2)C1 (stereo not shown) [Example 83, N-(6-chloropyridin-3-yl)-6-((3,3-difluorocyclohexyl)oxy)isoquinolin-1-amine]",1 to 10
17,"C[Si](C)(C)CCOCN(c1ccc(Cl)nc1)c1nccc2cc(F)ccc12 [Example 92, N-(6-chloropyridin-3-yl)-6-fluoro-N-((2-(trimethylsilyl)ethoxy)-methyl)isoquinolin-1-amine]",1 to 10
18,"Clc1ccc(Nc2nccc3cc(OC4CC5CCC(C4)N5Cc4ccccc4)ccc23)cn1 (stereo not shown) [Example 97, 6-((8-benzyl-8-azabicyclo[3.2.1]octan-3-yl)oxy)-N-(6-chloropyridin-3-yl)isoquinolin-1-amine]",10 to 30
